Data set [1] in a line: Single-photon emission computed tomography (SPECT) imaging of unilateral-CNV rats. The format is in vivo, Brown Norway (BN) pigmented rats. The following applies: 3, 24 and 48 hours after i.v. 250 μCi. The procedure: (§1) In the process of monitoring the behavior of these animals, 2 to 3 out of the 10 rats were unable to walk straight. This abnormal behavior might be related to vision loss of the right eye as the result of laser photocoagulation. There were no other noticeable side effects observed in these rats.
The SPECT imaging was carried out at 3, 24, and 48 hours after the injection of 250 μCi of either In^111-DTPA or In^111 encapsulated liposome. […] The center field of view was 25.4 cm^2 and a single energy centered window was used at […], with a width of 20%. A sequence of scans ([…]×6) was obtained over a period of 15 min. Images were reconstructed in a 128×128 (pixels) format from data with 32 projections distributed over 180° around the rat and a 40 s scan for each projection. The projections of each experiment were processed by reconstruction using filtered back projection, with a low-pass Butterworth filter of order 22.4 and cutoff frequency of 0.43. Each transverse image was reconstructed in a 128×128 array with a pixel size of 1.9×1.9 mm and a zoom of 2.0×.
The experiment determines the biodistribution of In^111, a small molecular marker and In^111-encapsulated liposome, a lipid nano-particle in an experimental CNV model. Ten unilateral CNV rats were randomly divided into two groups with 4 and 6 rats, respectively. […]

The nature of data set [2]: Bio-distribution of radioactivity in normal and CNV eyes of unilateral-CNV rats (γ scintillation counting after perfusion). The class given is in vivo, Brown Norway (BN) pigmented rats. The following applies: for specific radioactivity, CNV eye: CNV (right) eye; for specific radioactivity, CNV eye / specific radioactivity, normal eye: i.v. 250 μCi, means ± s.d.; for specific radioactivity, normal eye: normal (left) eye. The procedure:
as §1
After the SPECT, all rats were sacrificed and perfused with normal saline containing 2 mM EDTA. Animals were dissected to isolate both normal (left) and CNV (right) eyes. The isolated eyes were weighted and radioactivity associated with the eyes was counted by a γ scintillation counter (Cobra II Autogamma, Packed, USA). The uptake of radiotracer in the eyes or other tissues was expressed in counts per minute (cpm) with decay correction and was normalized as percent of injection dose per gram tissue (% ID/g).
The experiment determines the biodistribution of In^111, a small molecular marker and In^111-encapsulated liposome, a lipid nano-particle in an experimental CNV model. Ten unilateral CNV rats were randomly divided into two groups with 4 and 6 rats, respectively. Group 1 received 250 μCi of In^111-DTPA and group 2 received 250 μCi of In^111-encapsulated liposome by intravenous injection.

A short description of data set [3]: Fluorescein angiography (FAG) and visual observation of eyes in unilateral-CNV rats after i.v. injection. The note with it: normal and CNV eyes, visual observation up to 24 hours.
Procedure: Brown Norway (BN) pigmented rats, weighing between 200 and 250 gram, were anesthetized with intramuscular injection of 0.15 ml/kg of an equal-volume mixture of 2% lidocaine (Xylocalne; Astra, Astra Södertalje, Sweden) and 50 mg/mL ketamine (Ketalar; Parke-Davis, Morris Plains, N.J.). After anesthetizing, the right pupils were dilated with 1% tropicamide (1% Mydriacyl; Alcon Laboratories, Watford, UK). A small piece of transparent sheet (3M, Minneapolis, Minn.) approximately 3 mm in diameter was attached to the cornea by sodium hyaluronidase (Healon; Pharmacia and Upjohn, Inc., Kalamazoo, Mich.) to serve as a contact lens. Krypton laser (Novus Omni; Coherent, Palo Alto, Calif.) irradiation was delivered through a slit lamp (Carl Zeiss, Oberkochen, Germany). Laser parameters used were as follows: spot size of 100 mm, power of 120 to 160 mW, and exposure duration of 0.1 second. […] CNV was evaluated on day 14 by opthalmoscopy, fundus photography, and conventional fluorescein angiography (FAG) modified from (DiLoreto D, Grover D A, Del Cerro C. (1994) Curr Eye Res. 13, 157-61).
Fluorescein sodium (10%; 0.1 ml/kg; Fluorescite™; Alcon, Fort Worth, Tex.) was injected through the tail vein of the anesthetized rats 14 days after laser photocoagulation. The CNV lesions were recorded with a digital fundus camera (Retinal Angiography; Heidelberg Engineering, Heidelberg, Germany). […]

SMILES strings stand for the structures.

As to `O=C([O-])CN(CCN(CC(=O)[O-])CC(=O)[O-])CCN(CC(=O)[O-])CC(=O)[O-].[111In+3].[H+].[H+]` [In^111-DTPA], the “accumulation of radioactivity in eyes on SPECT images” value in data set [1] was “did not show any In^111 accumulation in both normal and CNV eyes even at 3 hours”. In data set [2] (24 and 48 hours post-injection), the “difference in specific radioactivity between the normal and CNV eyes” value is “no difference”. In data set [2] (24 hours post injection), the “specific radioactivity, CNV eye” value amounted to 0.14 ± 0.09 % ID/g and the “specific radioactivity, normal eye” value was 0.16 ± 0.04 % ID/g. In addition, in data set [2] (48 hours post injection), the “specific radioactivity, CNV eye” value is recorded as 0.13 ± 0.05 % ID/g and the “specific radioactivity, normal eye” value is on record as 0.14 ± 0.06 % ID/g.
For `O=C1OC2(c3ccc(O)cc3Oc3cc(O)ccc32)c2ccccc21` [fluorescein sodium, Fluorescein sodium], in data set [3], the “visual appearance (colour) of the eyes after i.v. administration” value is listed as “greenish color quickly disappeared within an hour”.
